From PMC12446476 (Nature Communications, 2025)
Like-named read-outs stand apart in the source and are kept apart here.

System: N. gonorrhoeae
Assay: MIC determination, Etest
Format: cell-based, Neisseria gonorrhoeae
Details: for MIC: Neisseria gonorrhoeae
Excerpt: The 2024 WHO N. gonorrhoeae reference strains were used for quality control. Only whole MIC doubling dilutions are reported. Clinical breakpoints or the epidemiological cutoff (ECOFF, to indicate azithromycin resistance) from EUCAST (v14.0, https://www.eucast.org/clinical_breakpoints) were used to classify isolates as antimicrobial susceptible or resistant. […] Two times the standard inoculum defined by CLSI was used to establish consistent growth in untreated control samples for some strains. In vitro time-kill assays were performed according to CLSI guidelines[65] using Columbia Broth (BD Difco) supplemented with 1% IsoVitaleX Enrichment (BD). Viable bacterial counts were generated by plating 10-fold serially diluted samples on GC agar plates containing 1% IsoVitaleX Enrichment (BD).

CC[C@H]1OC(=O)[C@H](C)[C@@H](O[C@H]2C[C@@](C)(OC)[C@@H](O)[C@H](C)O2)[C@H](C)[C@@H](O[C@@H]2O[C@H](C)C[C@H](N(C)C)[C@H]2O)[C@](C)(O)C[C@@H](C)CN(C)[C@H](C)[C@@H](O)[C@]1(C)O [Azithromycin]
0.5 µg/mL: MIC (WHO K, Etest, read-out: MIC) | MIC (WHO M, Etest, read-out: MIC) | MIC (WHO O, Etest, read-out: MIC) | MIC (WHO R, Etest, read-out: MIC) | MIC (WHO X, Etest, read-out: MIC) | MIC (comparator antibiotics, clinical N. gonorrhoeae isolate 4, Sweden 2023, read-out: Minimum inhibitory concentration) | MIC (comparator antibiotics, clinical N. gonorrhoeae isolate 20, Sweden 2023, read-out: Minimum inhibitory concentration) | MIC (comparator antibiotics, clinical N. gonorrhoeae isolate 21, Sweden 2023, read-out: Minimum inhibitory concentration) | MIC (comparator antibiotics, clinical N. gonorrhoeae isolate 36, Sweden 2023, read-out: Minimum inhibitory concentration) | MIC (comparator antibiotics, clinical N. gonorrhoeae isolate 43, Sweden 2023, read-out: Minimum inhibitory concentration) | MIC (comparator antibiotics, clinical N. gonorrhoeae isolate 44, Sweden 2023, read-out: Minimum inhibitory concentration) | MIC (comparator antibiotics, clinical N. gonorrhoeae isolate 49, Sweden 2023, read-out: Minimum inhibitory concentration) | MIC (comparator antibiotics, clinical N. gonorrhoeae isolate 54, Sweden 2023, read-out: Minimum inhibitory concentration) | MIC (comparator antibiotics, clinical N. gonorrhoeae isolate 55, Sweden 2023, read-out: Minimum inhibitory concentration) | MIC (comparator antibiotics, clinical N. gonorrhoeae isolate 60, Sweden 2023, read-out: Minimum inhibitory concentration) | MIC (comparator antibiotics, clinical N. gonorrhoeae isolate 64, Sweden 2023, read-out: Minimum inhibitory concentration) | MIC (comparator antibiotics, clinical N. gonorrhoeae isolate 74, Sweden 2023, read-out: Minimum inhibitory concentration) | MIC (comparator antibiotics, clinical N. gonorrhoeae isolate 75, Sweden 2023, read-out: Minimum inhibitory concentration) | MIC (comparator antibiotics, clinical N. gonorrhoeae isolate 84, Sweden 2023, read-out: Minimum inhibitory concentration) | MIC (comparator antibiotics, clinical N. gonorrhoeae isolate 88, Sweden 2023, read-out: Minimum inhibitory concentration) | MIC (comparator antibiotics, clinical N. gonorrhoeae isolate 92, Sweden 2023, read-out: Minimum inhibitory concentration) | MIC (comparator antibiotics, clinical N. gonorrhoeae isolate 95, Sweden 2023, read-out: Minimum inhibitory concentration)
R: AMR phenotype (susceptibility category, EUCAST) (WHO P) | AMR phenotype (susceptibility category, EUCAST) (WHO Q) | AMR phenotype (susceptibility category, EUCAST) (WHO S2) | AMR phenotype (susceptibility category, EUCAST) (WHO U) | AMR phenotype (susceptibility category, EUCAST) (WHO V)
> 256 µg/mL: MIC (WHO V, Etest, read-out: MIC)
0.125 µg/mL: MIC (comparator antibiotics, clinical N. gonorrhoeae isolate 2, Sweden 2023, read-out: Minimum inhibitory concentration) | MIC (comparator antibiotics, clinical N. gonorrhoeae isolate 7, Sweden 2023, read-out: Minimum inhibitory concentration) | MIC (comparator antibiotics, clinical N. gonorrhoeae isolate 10, Sweden 2023, read-out: Minimum inhibitory concentration) | MIC (comparator antibiotics, clinical N. gonorrhoeae isolate 12, Sweden 2023, read-out: Minimum inhibitory concentration) | MIC (comparator antibiotics, clinical N. gonorrhoeae isolate 22, Sweden 2023, read-out: Minimum inhibitory concentration) | MIC (comparator antibiotics, clinical N. gonorrhoeae isolate 23, Sweden 2023, read-out: Minimum inhibitory concentration) | MIC (comparator antibiotics, clinical N. gonorrhoeae isolate 27, Sweden 2023, read-out: Minimum inhibitory concentration) | MIC (comparator antibiotics, clinical N. gonorrhoeae isolate 30, Sweden 2023, read-out: Minimum inhibitory concentration) | MIC (comparator antibiotics, clinical N. gonorrhoeae isolate 33, Sweden 2023, read-out: Minimum inhibitory concentration) | MIC (comparator antibiotics, clinical N. gonorrhoeae isolate 34, Sweden 2023, read-out: Minimum inhibitory concentration) | MIC (comparator antibiotics, clinical N. gonorrhoeae isolate 37, Sweden 2023, read-out: Minimum inhibitory concentration) | MIC (comparator antibiotics, clinical N. gonorrhoeae isolate 39, Sweden 2023, read-out: Minimum inhibitory concentration) | MIC (comparator antibiotics, clinical N. gonorrhoeae isolate 47, Sweden 2023, read-out: Minimum inhibitory concentration) | MIC (comparator antibiotics, clinical N. gonorrhoeae isolate 48, Sweden 2023, read-out: Minimum inhibitory concentration) | MIC (comparator antibiotics, clinical N. gonorrhoeae isolate 53, Sweden 2023, read-out: Minimum inhibitory concentration) | MIC (comparator antibiotics, clinical N. gonorrhoeae isolate 58, Sweden 2023, read-out: Minimum inhibitory concentration) | MIC (comparator antibiotics, clinical N. gonorrhoeae isolate 61, Sweden 2023, read-out: Minimum inhibitory concentration) | MIC (comparator antibiotics, clinical N. gonorrhoeae isolate 70, Sweden 2023, read-out: Minimum inhibitory concentration) | MIC (comparator antibiotics, clinical N. gonorrhoeae isolate 72, Sweden 2023, read-out: Minimum inhibitory concentration) | MIC (comparator antibiotics, clinical N. gonorrhoeae isolate 76, Sweden 2023, read-out: Minimum inhibitory concentration) | MIC (comparator antibiotics, clinical N. gonorrhoeae isolate 80, Sweden 2023, read-out: Minimum inhibitory concentration) | MIC (comparator antibiotics, clinical N. gonorrhoeae isolate 85, Sweden 2023, read-out: Minimum inhibitory concentration) | MIC (comparator antibiotics, clinical N. gonorrhoeae isolate 86, Sweden 2023, read-out: Minimum inhibitory concentration) | MIC (comparator antibiotics, clinical N. gonorrhoeae isolate 87, Sweden 2023, read-out: Minimum inhibitory concentration) | MIC (comparator antibiotics, clinical N. gonorrhoeae isolate 90, Sweden 2023, read-out: Minimum inhibitory concentration)
2%: percent of isolates resistant (100 contemporary clinical N. gonorrhoeae isolates, EUCAST)
0.016 µg/mL: MIC (comparator antibiotics, clinical N. gonorrhoeae isolate 28, Sweden 2023, read-out: Minimum inhibitory concentration) | MIC (comparator antibiotics, clinical N. gonorrhoeae isolate 62, Sweden 2023, read-out: Minimum inhibitory concentration)
0.032 µg/mL: MIC (comparator antibiotics, clinical N. gonorrhoeae isolate 18, Sweden 2023, read-out: Minimum inhibitory concentration) | MIC (comparator antibiotics, clinical N. gonorrhoeae isolate 38, Sweden 2023, read-out: Minimum inhibitory concentration) | MIC (comparator antibiotics, clinical N. gonorrhoeae isolate 42, Sweden 2023, read-out: Minimum inhibitory concentration) | MIC (comparator antibiotics, clinical N. gonorrhoeae isolate 46, Sweden 2023, read-out: Minimum inhibitory concentration) | MIC (comparator antibiotics, clinical N. gonorrhoeae isolate 83, Sweden 2023, read-out: Minimum inhibitory concentration) | MIC (comparator antibiotics, clinical N. gonorrhoeae isolate 91, Sweden 2023, read-out: Minimum inhibitory concentration) | MIC (comparator antibiotics, clinical N. gonorrhoeae isolate 93, Sweden 2023, read-out: Minimum inhibitory concentration) | MIC (comparator antibiotics, clinical N. gonorrhoeae isolate 94, Sweden 2023, read-out: Minimum inhibitory concentration)
0.25 µg/mL: MIC (WHO F, Etest, read-out: MIC) | MIC (WHO H, Etest, read-out: MIC) | MIC (comparator antibiotics, clinical N. gonorrhoeae isolate 1, Sweden 2023, read-out: Minimum inhibitory concentration) | MIC (comparator antibiotics, clinical N. gonorrhoeae isolate 3, Sweden 2023, read-out: Minimum inhibitory concentration) | MIC (comparator antibiotics, clinical N. gonorrhoeae isolate 9, Sweden 2023, read-out: Minimum inhibitory concentration) | MIC (comparator antibiotics, clinical N. gonorrhoeae isolate 11, Sweden 2023, read-out: Minimum inhibitory concentration) | MIC (comparator antibiotics, clinical N. gonorrhoeae isolate 15, Sweden 2023, read-out: Minimum inhibitory concentration) | MIC (comparator antibiotics, clinical N. gonorrhoeae isolate 16, Sweden 2023, read-out: Minimum inhibitory concentration) | MIC (comparator antibiotics, clinical N. gonorrhoeae isolate 17, Sweden 2023, read-out: Minimum inhibitory concentration) | MIC (comparator antibiotics, clinical N. gonorrhoeae isolate 19, Sweden 2023, read-out: Minimum inhibitory concentration) | MIC (comparator antibiotics, clinical N. gonorrhoeae isolate 24, Sweden 2023, read-out: Minimum inhibitory concentration) | MIC (comparator antibiotics, clinical N. gonorrhoeae isolate 26, Sweden 2023, read-out: Minimum inhibitory concentration) | MIC (comparator antibiotics, clinical N. gonorrhoeae isolate 29, Sweden 2023, read-out: Minimum inhibitory concentration) | MIC (comparator antibiotics, clinical N. gonorrhoeae isolate 35, Sweden 2023, read-out: Minimum inhibitory concentration) | MIC (comparator antibiotics, clinical N. gonorrhoeae isolate 41, Sweden 2023, read-out: Minimum inhibitory concentration) | MIC (comparator antibiotics, clinical N. gonorrhoeae isolate 50, Sweden 2023, read-out: Minimum inhibitory concentration) | MIC (comparator antibiotics, clinical N. gonorrhoeae isolate 52, Sweden 2023, read-out: Minimum inhibitory concentration) | MIC (comparator antibiotics, clinical N. gonorrhoeae isolate 56, Sweden 2023, read-out: Minimum inhibitory concentration) | MIC (comparator antibiotics, clinical N. gonorrhoeae isolate 63, Sweden 2023, read-out: Minimum inhibitory concentration) | MIC (comparator antibiotics, clinical N. gonorrhoeae isolate 66, Sweden 2023, read-out: Minimum inhibitory concentration) | MIC (comparator antibiotics, clinical N. gonorrhoeae isolate 67, Sweden 2023, read-out: Minimum inhibitory concentration) | MIC (comparator antibiotics, clinical N. gonorrhoeae isolate 69, Sweden 2023, read-out: Minimum inhibitory concentration) | MIC (comparator antibiotics, clinical N. gonorrhoeae isolate 78, Sweden 2023, read-out: Minimum inhibitory concentration) | MIC (comparator antibiotics, clinical N. gonorrhoeae isolate 81, Sweden 2023, read-out: Minimum inhibitory concentration) | MIC (comparator antibiotics, clinical N. gonorrhoeae isolate 89, Sweden 2023, read-out: Minimum inhibitory concentration) | MIC (comparator antibiotics, clinical N. gonorrhoeae isolate 96, Sweden 2023, read-out: Minimum inhibitory concentration) | MIC (comparator antibiotics, clinical N. gonorrhoeae isolate 97, Sweden 2023, read-out: Minimum inhibitory concentration)
0.064 µg/mL: MIC (comparator antibiotics, clinical N. gonorrhoeae isolate 5, Sweden 2023, read-out: Minimum inhibitory concentration) | MIC (comparator antibiotics, clinical N. gonorrhoeae isolate 6, Sweden 2023, read-out: Minimum inhibitory concentration) | MIC (comparator antibiotics, clinical N. gonorrhoeae isolate 8, Sweden 2023, read-out: Minimum inhibitory concentration) | MIC (comparator antibiotics, clinical N. gonorrhoeae isolate 13, Sweden 2023, read-out: Minimum inhibitory concentration) | MIC (comparator antibiotics, clinical N. gonorrhoeae isolate 14, Sweden 2023, read-out: Minimum inhibitory concentration) | MIC (comparator antibiotics, clinical N. gonorrhoeae isolate 25, Sweden 2023, read-out: Minimum inhibitory concentration) | MIC (comparator antibiotics, clinical N. gonorrhoeae isolate 31, Sweden 2023, read-out: Minimum inhibitory concentration) | MIC (comparator antibiotics, clinical N. gonorrhoeae isolate 32, Sweden 2023, read-out: Minimum inhibitory concentration) | MIC (comparator antibiotics, clinical N. gonorrhoeae isolate 40, Sweden 2023, read-out: Minimum inhibitory concentration) | MIC (comparator antibiotics, clinical N. gonorrhoeae isolate 45, Sweden 2023, read-out: Minimum inhibitory concentration) | MIC (comparator antibiotics, clinical N. gonorrhoeae isolate 51, Sweden 2023, read-out: Minimum inhibitory concentration) | MIC (comparator antibiotics, clinical N. gonorrhoeae isolate 57, Sweden 2023, read-out: Minimum inhibitory concentration) | MIC (comparator antibiotics, clinical N. gonorrhoeae isolate 59, Sweden 2023, read-out: Minimum inhibitory concentration) | MIC (comparator antibiotics, clinical N. gonorrhoeae isolate 65, Sweden 2023, read-out: Minimum inhibitory concentration) | MIC (comparator antibiotics, clinical N. gonorrhoeae isolate 68, Sweden 2023, read-out: Minimum inhibitory concentration) | MIC (comparator antibiotics, clinical N. gonorrhoeae isolate 73, Sweden 2023, read-out: Minimum inhibitory concentration) | MIC (comparator antibiotics, clinical N. gonorrhoeae isolate 77, Sweden 2023, read-out: Minimum inhibitory concentration) | MIC (comparator antibiotics, clinical N. gonorrhoeae isolate 79, Sweden 2023, read-out: Minimum inhibitory concentration) | MIC (comparator antibiotics, clinical N. gonorrhoeae isolate 98, Sweden 2023, read-out: Minimum inhibitory concentration) | MIC (comparator antibiotics, clinical N. gonorrhoeae isolate 99, Sweden 2023, read-out: Minimum inhibitory concentration) | MIC (comparator antibiotics, clinical N. gonorrhoeae isolate 100, Sweden 2023, read-out: Minimum inhibitory concentration)
2 µg/mL: MIC (WHO S2, Etest, read-out: MIC) | MIC (comparator antibiotics, clinical N. gonorrhoeae isolate 71, Sweden 2023, read-out: Minimum inhibitory concentration) | MIC (comparator antibiotics, clinical N. gonorrhoeae isolate 82, Sweden 2023, read-out: Minimum inhibitory concentration)
< 256 µg/mL: MIC (WHO Q, Etest, read-out: MIC)
1 µg/mL: MIC (WHO L, Etest, read-out: MIC) | MIC (WHO Y, Etest, read-out: MIC) | MIC (WHO Z, Etest, read-out: MIC)
4 µg/mL: MIC (WHO P, Etest, read-out: MIC) | MIC (WHO U, Etest, read-out: MIC)
S: AMR phenotype (susceptibility category, EUCAST) (WHO F) | AMR phenotype (susceptibility category, EUCAST) (WHO H) | AMR phenotype (susceptibility category, EUCAST) (WHO K) | AMR phenotype (susceptibility category, EUCAST) (WHO L) | AMR phenotype (susceptibility category, EUCAST) (WHO M) | AMR phenotype (susceptibility category, EUCAST) (WHO O) | AMR phenotype (susceptibility category, EUCAST) (WHO R) | AMR phenotype (susceptibility category, EUCAST) (WHO X) | AMR phenotype (susceptibility category, EUCAST) (WHO Y) | AMR phenotype (susceptibility category, EUCAST) (WHO Z)
